Experimental data published in PubChem BioAssay (NCI).
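Exposure lasted 48 hours, with cells grown in 96-well plates and compounds tested at five concentrations. GI50: concentration for 50% inhibition of growth. The concentration for full growth arrest is given as TGI.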

Key:
Test in all cases: NCI tumour cell line growth inhibition, 48 h
[1] = test system: NCI/ADR-RES ovarian
[2] = test system: HS 578T breast
[3] = test system: SW-620 colon
[4] = test system: CCRF-CEM leukemia
[5] = test system: IGROV1 ovarian
[6] = test system: HOP-92 NSCLC
[7] = test system: UACC-257 melanoma
[8] = test system: NCI-H226 lung
[9] = test system: OVCAR-4 ovarian
[10] = test system: MDA-MB-435
[11] = test system: RXF 393 renal
[12] = test system: BT-549 breast
[13] = test system: SF-539 CNS
[14] = test system: KM12 colon
[15] = test system: RPMI-8226 leukemia
[16] = test system: DU-145 prostate
[17] = test system: MOLT-4 leukemia
[18] = test system: SNB-19 CNS
[19] = test system: OVCAR-8 ovarian
[20] = test system: HCT-15 colon
[21] = test system: SR leukemia
[22] = test system: ACHN renal
[23] = test system: HOP-62 NSCLC
[24] = test system: T-47D breast
[25] = test system: PC-3 prostate
[26] = test system: SF-295 CNS
[27] = test system: HL-60(TB) leukemia
[28] = test system: EKVX NSCLC
[29] = test system: 786-0 renal
[30] = test system: LOX IMVI melanoma
[31] = test system: MDA-MB-231 breast
[32] = test system: M14 melanoma
[33] = test system: A498 renal
[34] = test system: UO-31 renal
[35] = test system: NCI-H460 lung
[36] = test system: U251 CNS
[37] = test system: HCC-2998 colon
[38] = test system: NCI-H522 lung
[39] = test system: TK-10 renal
[40] = test system: COLO 205 colon
[41] = test system: SN12C renal
[42] = test system: UACC-62 melanoma
[43] = test system: SK-MEL-5 melanoma
[44] = test system: HT29 colon
[45] = test system: SK-OV-3 ovarian
[46] = test system: SF-268 CNS
[47] = test system: CAKI-1 renal
[48] = test system: MCF7 breast
[49] = test system: K-562 leukemia
[50] = test system: SNB-75 CNS
[51] = test system: A549 NSCLC
[52] = test system: SK-MEL-2 melanoma
[53] = test system: HCT-116 colon
[54] = test system: SK-MEL-28 melanoma
[55] = test system: OVCAR-5 ovarian
[56] = test system: MALME-3M melanoma

Structure (SMILES): c1n[nH]cc1-c1nc2ccc3[nH]ncc3c2c2c1CCCC2
- GI50 [1]: 2100 nM
- TGI [1]: 6050 nM
- GI50 [2]: 914 nM
- TGI [2]: 4020 nM
- GI50 [3]: 924 nM
- TGI [3]: 6540 nM
- GI50 [4]: 2420 nM
- TGI [4]: > 100000 nM
- GI50 [5]: 1350 nM
- TGI [5]: 8150 nM
- GI50 [6]: 2240 nM
- TGI [6]: 6310 nM
- GI50 [7]: 1860 nM
- TGI [7]: 6640 nM
- GI50 [8]: 1280 nM
- TGI [8]: 3650 nM
- GI50 [9]: 2350 nM
- TGI [9]: 7930 nM
- GI50 [10]: 1400 nM
- TGI [10]: 4380 nM
- GI50 [11]: 1170 nM
- TGI [11]: 2770 nM
- GI50 [12]: 1220 nM
- TGI [12]: 2490 nM
- GI50 [13]: 1380 nM
- TGI [13]: 3090 nM
- GI50 [14]: 2910 nM
- TGI [14]: 8900 nM
- GI50 [15]: 1510 nM
- TGI [15]: 4940 nM
- GI50 [16]: 1710 nM
- TGI [16]: 11600 nM
- GI50 [17]: 1990 nM
- TGI [17]: 7880 nM
- GI50 [18]: 2780 nM
- TGI [18]: 9850 nM
- GI50 [19]: 1640 nM
- TGI [19]: 4380 nM
- GI50 [20]: 1380 nM
- TGI [20]: 14000 nM
- GI50 [21]: 287 nM
- TGI [21]: 5450 nM
- GI50 [22]: 560 nM
- TGI [22]: 10300 nM
- GI50 [23]: 1750 nM
- TGI [23]: 7680 nM
- GI50 [24]: 2210 nM
- TGI [24]: 8180 nM
- GI50 [25]: 2370 nM
- TGI [25]: 11600 nM
- GI50 [26]: 2110 nM
- TGI [26]: 8490 nM
- GI50 [27]: 1490 nM
- TGI [27]: 5590 nM
- GI50 [28]: 887 nM
- TGI [28]: 3330 nM
- GI50 [29]: 1410 nM
- TGI [29]: 2720 nM
- GI50 [30]: 1150 nM
- TGI [30]: 2910 nM
- GI50 [31]: 1960 nM
- TGI [31]: 12000 nM
- GI50 [32]: 1110 nM
- TGI [32]: 3360 nM
- GI50 [33]: 405 nM
- TGI [33]: 1920 nM
- GI50 [34]: 1540 nM
- TGI [34]: 7650 nM
- GI50 [35]: 783 nM
- TGI [35]: 4850 nM
- GI50 [36]: 2060 nM
- TGI [36]: 12100 nM
- GI50 [37]: 1640 nM
- TGI [37]: 7310 nM
- GI50 [38]: 835 nM
- TGI [38]: 2770 nM
- GI50 [39]: 766 nM
- TGI [39]: 8200 nM
- GI50 [40]: 1310 nM
- TGI [40]: 4470 nM
- GI50 [41]: 1840 nM
- TGI [41]: 7540 nM
- GI50 [42]: 1060 nM
- TGI [42]: 3250 nM
- GI50 [43]: 1280 nM
- TGI [43]: 3220 nM
- GI50 [44]: 1670 nM
- TGI [44]: 10900 nM
- GI50 [45]: 680 nM
- TGI [45]: 11600 nM
- GI50 [46]: 1950 nM
- TGI [46]: 4630 nM
- GI50 [47]: 511 nM
- TGI [47]: 10400 nM
- GI50 [48]: 2420 nM
- TGI [48]: 11700 nM
- GI50 [49]: 3010 nM
- TGI [49]: > 100000 nM
- GI50 [50]: 1310 nM
- TGI [50]: 2880 nM
- GI50 [51]: 2010 nM
- TGI [51]: 12300 nM
- GI50 [52]: 1260 nM
- TGI [52]: 3120 nM
- GI50 [53]: 635 nM
- TGI [53]: 7920 nM
- GI50 [54]: 1590 nM
- TGI [54]: 4510 nM
- GI50 [55]: 2710 nM
- TGI [55]: 17900 nM
- GI50 [56]: 1560 nM
- TGI [56]: 4760 nM
